Laboratory results from US9492462B2, “Composition for elastin production” (HUMAN MATRIX SCIENCES, LLC, priority 2007, dated 2016).

How the values were obtained:
Format in all cases: cell-based, human
[1] = system: normal skin fibroblasts; assay: [3H]-valine incorporation into insoluble elastin, normal skin fibroblasts; settings: 50 ng/ml IGF-I, 50 nM aldosterone, alone or in combination
Procedure: Biological effects of aldosterone and spironolactone were tested in cultures of dermal fibroblasts derived from normal skin, stretch-marked skin and dermal scars derived from Caucasian females, of different ages ranging from 30-38 years old. All fibroblasts were originally isolated by allowing them to migrate out of skin explants and then passaged by trypsinization and maintained in alpha-minimum essential medium supplemented with 20 mM Hepes, 1% antibiotics and antimycotics, 1% L-Glutamate and 2% fetal bovine serum (FBS) as previously described Hinek et al. “Impaired elastic-fiber assembly by fibroblasts from patients with either Morquio B disease or infantile GM1-gangliosidosis is linked to deficiency in the 67-kD spliced variant of beta-galactosidase.” Am J Hum Genet. 2000 July; 67(1):23-36 hereby incorporated by reference in its entirety. In all experiments, consecutive passages 3-4 were tested. Cells were densely plated (50×10^5 cells/dish) to reach confluency and then cultured for 7 days in the presence and absence of different concentrations of (10 nM-1 μM) aldosterone, 2 μM spironolactone, alone or in combinations with other reagents, as described in figure legends.
Quintuplicate, 4 day-old cultures of dermal fibroblasts maintained in the presence and absence of indicated reagents were additionally exposed for the 3 following days to 20 μCi [^3H]-valine. At the end of incubation period, the cell layers were extensively washed with PBS, scraped and boiled in 500 μl of 0.1 N NaOH for 30 minutes, to solubilize all matrix components except elastin. The resulting pellets containing the insoluble elastin were then solubilized by boiling in 200 μl of 5.7 N HCl for 1 hour, and the aliquots were mixed in scintillation fluid and counted. Aliquots taken from each culture were also used for DNA determination, according to Rodems et al., using the DNeasy Tissue System from Qiagen. Final results reflecting amounts of metabolically labeled insoluble elastin in individual cultures were normalized per their DNA content, and expressed as CPM/1 μg DNA.

[2] = system: elastin mRNA; assay: Elastin mRNA level by one-step RT-PCR in normal skin fibroblasts; settings: 24 h; 50 nM and 1 μM aldosterone, alone or with 2 μM spironolactone
Procedure: Fibroblasts were cultured to confluency in medium with 2% FBS and then in serum-free medium for 24 hours. The medium was changed again and cells were incubated for the next 24 hours in the presence and absence of in the presence of 50 nM and 1 μM aldosterone, and 2 μM spironolactone, alone or in combinations, as described in figure legend. At the end of the incubation period total RNA was extracted using the RNeasy Mini Kit, according to manufacturer's instructions. Steady-state levels of elastin mRNA were then analyzed by One-Step RT-PCR analysis. Briefly, 1 μg of total RNA was added to each one step RT-PCR (Qiagen One-Step RT-PCR Kit), and reactions were set up according to manufacturer's instructions in a total volume of 25 μl. The reverse transcription step was performed for elastin, and GAPDH reactions at 50° C. for 30 minutes, followed by 15 minutes at 95° C. The elastin PCR reaction (sense primer: [NT] ID NO: 1), antisense primer: [NT] ID NO: 2); designed to produce a 255 bp product) was performed under the following conditions: 25 cycles at 94° C. denaturation for 20 s, 63° C. annealing for 20 s, 72° C. extension for 1 min; 1 cycle at 72° C. final extension for 10 min. The collagen Type I PCR reaction (sense [NT] ID NO: 3), antisense primer: [NT] […]

[3] = system: fibroblasts derived from patient with stretch marks; assay: [3H]-valine incorporation into insoluble elastin, stretch-mark fibroblasts; settings: 50 nM aldosterone alone or with 2 μM spironolactone
Procedure: Biological effects of aldosterone and spironolactone were tested in cultures of dermal fibroblasts derived from normal skin, stretch-marked skin and dermal scars derived from Caucasian females, of different ages ranging from 30-38 years old. All fibroblasts were originally isolated by allowing them to migrate out of skin explants and then passaged by trypsinization and maintained in alpha-minimum essential medium supplemented with 20 mM Hepes, 1% antibiotics and antimycotics, 1% L-Glutamate and 2% fetal bovine serum (FBS) as previously described Hinek et al. “Impaired elastic-fiber assembly by fibroblasts from patients with either Morquio B disease or infantile GM1-gangliosidosis is linked to deficiency in the 67-kD spliced variant of beta-galactosidase.” Am J Hum Genet. […] In all experiments, consecutive passages 3-4 were tested. […] The resulting pellets containing the insoluble elastin were then solubilized by boiling in 200 μl of 5.7 N HCl for 1 hour, and the aliquots were mixed in scintillation fluid and counted. […] Final results reflecting amounts of metabolically labeled insoluble elastin in individual cultures were normalized per their DNA content, and expressed as CPM/1 μg DNA.

[4] = system: skin biopsy explants from abdominal stretch marks; assay: Organ culture of stretch-marked skin explants, Movat's pentachrome stain; settings: 10 days, 50 nM aldosterone alone or with 2 μM spironolactone
Procedure: (§1) In order to further test whether aldosterone and spironolactone would penetrate into skin tissue and affect elastogenesis, fragments of normal skin, stretch-marked skin and dermal scars were tested in organ culture system. Skin fragments were cut into multiple 1 mm^2 pieces and placed on top of metal grids immersed in culture medium containing 5% FBS and maintained for 10 days in the presence and absence of and then cultured for 7 days in the presence of 50 nM aldosterone, and 2 μM spironolactone, alone or in combinations, as described in figure legends. The media were changed every second day. All organ cultures were fixed in 1% buffered formalin and their transversal serial histological sections were stained with Movat's pentachrome as previously described in Hinek et al. “Proteolytic digest derived from bovine Ligamentum Nuchae stimulates deposition of new elastin-enriched matrix in cultures and transplants of human dermal fibroblasts” J Dermatol Sci. September 2005; 39(3):155-66 hereby incorporated by reference in it's entirety. Morphometric analysis was performed as described above. In each analyzed group (three explants from each patient) low-power fields (1 mm^2) of 20 serial sections stained with Movat's pentachrome were analyzed and all structures stained black (elastic fibers) were counted.

[5] = system: skin biopsy explants derived from normal abdominal skin; assay: Organ culture of normal skin explants, Movat's pentachrome stain; settings: 10 days, 50 nM aldosterone alone or with 2 μM spironolactone
Procedure: as §1

## C[C@]12CCC(=O)C=C1CC[C@@H]1[C@@H]2[C@@H](O)C[C@]2(C=O)[C@@H](C(=O)CO)CC[C@@H]12 [aldosterone]
[1]
  mature, insoluble elastin concentration ([3H]-valine incorporation): improved mature elastin concentrations over untreated control
[2]
  elastin mRNA (relative to GAPDH mRNA): increases in an aldosterone concentration dependent manner
[3]
  concentration of mature, insoluble elastin ([3H]-valine incorporation): increased
[4]
  elastic fibers / deposition of elastin (Movat's pentachrome): thicker and longer elastic fibers
[5]
  elastic fibers / deposition of elastin (Movat's pentachrome): thicker and longer elastic fibers
